Legend:
Format in all cases: in vivo, C57BL/6 male mice
[1] = tested on: animal model of peritoneal fibrosis; assay: Peritoneal tissue staining (PAS, Masson's trichrome, Sirius red) in animal model of peritoneal fibrosis; details: FIG. 1
Experimental: (§1) In order to create an animal model of peritoneal fibrosis, 7-week-old C57BL/6 male mice were purchased from Koatech and bred under constant conditions (temperature: 22±2° C., relative humidity: 55±10%, circadian cycle: 12 hours). Five animals were grouped into one group, and water and food were freely supplied in cages, and they were used in the experiment after acclimatization for one week before the experiment. After the acclimatization period, 0.1% chlorohexidine was administered by intraperitoneal injection every 3 days for 30 days to establish an animal model of peritoneal fibrosis. […] Group 3 was orally administrated with CHP at a concentration of 17.5 mg/kg (CG-PD+CHP(17.5)), and Group 4 was orally administered with CHP at a concentration of 35 mg/kg (CG-PD+CHP(35)) through 1 mL syringes every day for 30 days.
Among the experimental animals designed in Example 1-1, the peritoneum was obtained from the mice of the groups administered with the drug and 0.1% chlorohexidine for 30 days from the xyphoid process to the upper part of the pelvic cavity, and then sacrificed with whole blood. From the skin to the parietal peritoneum, the tissues of the left abdomen were excised in a size of 0.5×1.0 cm, and some were fixed in 10% formalin for immunostaining and then embedded in paraffin. The tissue sections were cut to a thickness of 4 μm and evaluated by performing Periodic acid-Schiff (PAS) staining, Masson's trichrome (MT) staining and Sirius Red staining to check the degree of peritoneal fibrosis. After observation with an optical microscope, photographs were taken (Olympus BX-50, Olympus Optical, Tokyo, Japan).

[2] = tested on: animal model of peritoneal fibrosis; assay: Immunohistochemical staining of ICAM-1 and F4/80 in peritoneum of animal model of peritoneal fibrosis; details: CHP 17.5 and 35 mg/kg orally, 30 days, vs CG-PD, FIG. 2
Experimental: as §1
Peritoneal tissues were extracted from the mice of each group of Example 1-1, fixed in 10% formalin for immunostaining and then embedded in paraffin. Using the streptavidin biotin peroxidase (Vector Laboratories) method, these were reacted with each of the anti-ICAM1 antibody and the […] at 4° C. for 16 hours, followed by color development with diaminobenzidine tetrahydrochloride (DAB) to confirm the expressions.

[3] = tested on: animal model of peritoneal fibrosis; assay: Western blot of collagen 1, αSMA, p16 and p21 in peritoneal tissue of animal model of peritoneal fibrosis; details: Western blot corrected by GAPDH, CHP 17.5 and 35 mg/kg orally, vs CG-PD, FIGS. 3a
Experimental: as §1
Isoflurane which is necessary for anesthesia and dissection of mice in each group of Example 1-1 was purchased from Hana Pharm, and VetEquip's RC2 Rodent Circuit Controller Anesthesia System was prepared. Phosphate-buffered saline (PBS) was purchased from Hyclone. In order to isolate the peritoneal tissue of the mice, the mice were anesthetized by respiratory anesthesia with 3 to 3.5% isoflurane. After blood was drawn from the heart of anesthetized mice, the peritoneal tissue was immediately removed, washed with PBS, and 50 mg of the peritoneal tissue was cut out and placed in 500 μL of RIPA buffer containing protease and phosphatase inhibitors, and it was crushed using IKA's T10 homogenizer. After standing on ice for 15 minutes, centrifugation was performed at 15000 rpm at 4° C. The supernatant was collected and the protein concentration was measured by BCA quantitation, and in the same amount of the samples, the protein was separated using the Bolt™ protein gel electrophoresis system, and then transferred to a nitrocellulose membrane. The membrane was blocked with 5% skim milk at room temperature for 1 hour, and then reacted with primary antibodies collagen 1, αSMA, NRF2, p16, p21 and GAPDH antibodies overnight at 4° C. After washing 3 times for 10 minutes with TBST, the reaction was performed with the secondary antibodies at room temperature for 1 hour. After washing 3 times for 10 minutes with TBST, the expression level was measured by reacting with ECL. The size of the appearing band was quantified using the ImageJ program, and each band size value was divided by the GAPDH band size value and corrected. Statistical significance was analyzed using Student's t-test statistical method with the peritoneal fibrosis control group (CG-PD) (*p<0.05, […], ***p<0.0005).

[4] = tested on: animal model of peritoneal fibrosis; assay: Real-time PCR of collagen 1, p21 and E-cadherin in peritoneal tissue of animal model of peritoneal fibrosis; details: real-time PCR corrected by GAPDH, CHP 17.5 and 35 mg/kg orally, vs CG-PD
Experimental: as §1
Isoflurane which is necessary for anesthesia and dissection of mice in each group of Example 1-1 was purchased from Hana Pharma, and VetEquip's RC2 Rodent Circuit Controller Anesthesia System was prepared. Phosphate-buffered saline (PBS) was purchased from Hyclone. In order to isolate the peritoneal tissue of the mice, the mice were anesthetized by respiratory anesthesia with 3 to 3.5% isoflurane. After blood was drawn from the heart of the anesthetized mice, the peritoneal tissue was immediately removed, 50 mg of the peritoneum was cut, 500 μL of NucleoZOL was added, and then it was crushed using IKA's T10 homogenizer. Subsequently, RNA was extracted according to NucleoZOL's total RNA isolation protocol, and cDNA was synthesized from 1 μg of RNA by reverse transcription polymerase chain reaction using the iScript cDNA synthesis kit. The synthesized cDNA was analyzed by real-time PCR with iQ SYBR Green Supermix using forward/reverse primer sets corresponding to each gene. The expression value of each gene was corrected by dividing by the expression value of GAPDH, a housekeeping gene. Statistical significance was analyzed using Student's t-test statistical method with the peritoneal fibrosis control group (CG-PD) (*p<0.05, […], ***p<0.0005).

Question: How did the “thickened peritoneal layer (MT staining)” value ([1]; CHP 35 mg/kg administration group compared to 17.5 mg/kg administration group, oral, daily, 30 days) turn out when O=C1N[C@@H](Cc2cnc[nH]2)C(=O)N2CCC[C@@H]12 [CHP, cyclo(His-Pro)] was run?
Answer: The value was “significantly reduced”.

Question: And the “deposition of immune cells (PAS staining)” value ([1]; CHP 17.5 and 35 mg/kg orally every day for 30 days, 0.1% chlorohexidine i.p. model, vs fibrosis control group (CG-PD))?
Answer: Its value is “significantly reduced in a concentration-dependent manner”.

Question: What about the “accumulation of extracellular matrix (ECM) collagen (Sirius red staining)” value ([1]; CHP 17.5 and 35 mg/kg orally every day for 30 days) of the same compound?
Answer: The value was “significantly reduced in a concentration-dependent manner”.

Question: And the “expression level of ICAM-1 (IHC)” value [2]?
Answer: The value was “decreased”.

Question: And the “infiltration of immune cells (f4/80-positive cells, IHC)” value [2]?
Answer: The value was “rapidly decreased”.

Question: And the “extracellular matrix collagen (collagen 1) protein expression” value ([3]; 3b)?
Answer: The value was “statistically significantly decreased”.

Question: And the α-SMA protein expression ([3]; 3c)?
Answer: Its α-SMA protein expression is “statistically significantly decreased”.

Question: And the p16 protein expression ([3]; 3e)?
Answer: The p16 protein expression was “significantly reduced”.

Question: What about the p21 protein expression ([3]; 3d) of the same compound?
Answer: The p21 protein expression was “significantly reduced”.

Question: And the “mRNA expression of extracellular matrix collagen 1” value ([4]; FIG. 4a)?
Answer: The value was “decreased”.

Question: And the p21 gene expression ([4]; FIG. 4b)?
Answer: The p21 gene expression was “significantly reduced”.

Question: And the “expression level of E-cadherin (gene)” value ([4]; FIG. 4c)?
Answer: Its value is “significantly increased”.
